Data published in patent US5686454A, “Camphorcarbonyl” (Merck & Co., Inc., priority 1996, dated 1997).

Molecular target: T1, uterine OT receptors (Rattus norvegicus, UniProt P70536)
T1 construct: crude membrane preparation of uteri; from tissue; host or cells: uterus of DES-treated rats, crude membranes
T1 sequence (P70536 1-388): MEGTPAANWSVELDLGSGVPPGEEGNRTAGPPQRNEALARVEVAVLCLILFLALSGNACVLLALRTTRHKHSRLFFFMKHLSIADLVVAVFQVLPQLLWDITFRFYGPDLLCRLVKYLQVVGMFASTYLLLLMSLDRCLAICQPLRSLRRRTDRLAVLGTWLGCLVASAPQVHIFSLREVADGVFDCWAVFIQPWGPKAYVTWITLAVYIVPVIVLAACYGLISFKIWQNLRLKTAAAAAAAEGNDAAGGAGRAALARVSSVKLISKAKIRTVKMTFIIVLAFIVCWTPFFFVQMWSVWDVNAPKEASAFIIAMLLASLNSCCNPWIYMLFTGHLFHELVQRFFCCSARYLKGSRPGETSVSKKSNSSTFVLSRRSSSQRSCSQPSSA
Test: Radioligand binding: competition of [^3 H]oxytocin binding to rat uterine membranes
Details: for IC50: 1 nM [^3 H]OT, rat uterus membranes, 60 minutes, 22° C., pH 7.4, read-out: IC50; for inhibition at 1 µM: read-out: % inhibition at 1000 nM; for inhibition at 0.1 µM: read-out: % inhibition at 100 nM
Excerpt: RADIOGLIGAND BINDING ASSAYS
The high affinity binding of [^3 H]

| IC50 [nM] | further results | SMILES |
| --- | --- | --- |
| 5.4 |  | Cc1ccccc1N1CCN(S(=O)(=O)CC23CCC(CC2NC(=O)[C@H](CCS(C)(=O)=O)NC(=O)Cc2c[nH]cn2)C3(C)C)CC1 (stereo partly drawn) [Example 73, 1-((7,7-Dimethyl-2-endo-(2S-(imidazol-4-ylacetyl-amino)-4-(methylsulfonyl)butyramido)-bicyclo(2.2.1)-heptan-1-yl)methanesulfonyl)-4-(2-methylphenyl)-piperazine] |
| 54 |  | COC(=O)CCN1CCC(C(=O)NCC(C)C2(O)CC3CCC2(CS(=O)(=O)N2CCN(c4ccccc4C)CC2)C3(C)C)CC1 (stereo not drawn) [Example 91, 1-((7,7-Dimethyl-2-exo-hydroxy-2-endo-2-(1-(4-(1-methoxycarbonylethyl)-piperidinylcarbonyl)-amino)propylbicyclo(2.2.1)heptan-1-yl)methane-sulfonyl)-4-(2-methylphenyl)piperazine] |
| 180 |  | Cc1ccccc1N1CCN(S(=O)(=O)C[C@]23CC[C@H](C[C@]2(O)C(C)CN)C3(C)C)CC1 (stereo partly drawn) [Example 39] |
| 28 |  | CCOC(=O)CN1CCC[C@H]1C(=O)NCC(C)C1(O)CC2CCC1(CS(=O)(=O)N1CCN(c3ccccc3C)CC1)C2(C)C (stereo partly drawn) [Example 88, 1-((7,7-Dimethyl-2-exo-hydroxy-2-endo-2-(1-(1-N -(ethoxycarboxymethyl)-prolyl)amino)propyl-bicyclo-(2.2.1)heptan-1-yl)methanesulfonyl)-4-(2-methylphenyl)piperazine] |
|  | inhibition at 1 µM: 64% | Cc1ccccc1N1CCN(S(=O)(=O)C[C@]23CC[C@H](CC2=CCN=[N+]=[N-])C3(C)C)CC1 [Example 51, 1-((7,7-dimethyl-2-(2-azido)ethylidine-bicyclo-(2.2.1)heptan-1-yl)methanesulfonyl)-4-(2-methyl-phenyl)piperazine] |
| 27 |  | CCOC(=O)CCN1CCCC1C(=O)NC1C(C(=O)N2CCN(c3ccccc3C)CC2)C2CCC1(C)C2(C)C (stereo not drawn) [Example 16] |
| 460 |  | Cc1ccccc1N1CCN(S(=O)(=O)CC23CCC(CC2O)C3(C)C)C(C)C1 (stereo not drawn) [Example 68, 1-((7,7-Dimethyl-2-exo-hydroxy-bicyclo(2.2.1)heptan-1-yl)methanesulfonyl)-4-(2-methylphenyl)-2-methyl-piperazine] |
| 150 |  | Cc1ccccc1N1CCN(S(=O)(=O)C[C@]23CC[C@H](C[C@]2(O)C(C)C#N)C3(C)C)CC1 (stereo partly drawn) [Example 38, 1-((7,7-Dimethyl-2-exo-hydroxy-2-endo-(1-cyano)ethyl-bicyclo(2.2.1)heptan-1-yl)methanesulfonyl)-4-(2-methylphenyl)piperazine] |
| 15.3 |  | Cc1ccccc1N1CCN(C(=O)C2C3CCC(C)(C2NC(=O)C(N)CCS(C)(=O)=O)C3(C)C)CC1 (stereo not drawn) [Example 12, 1-(2-methylphenyl)-4-[(4,7,7-trimethyl-3-endo-(4-methylsulfonyl-2-amino)butanoylaminobicyclo[2.2.1]hept-2-endo-yl)carbonyl]-piperazine] |
| 800 |  | Cc1ccccc1N1CCN(C(=O)C2C3CCC(C)(C2O)C3(C)C)CC1 (stereo not drawn) [Example 2, 1-[(3-hydroxy-4,7,7-trimethylbicyclo[2.2.1]hept-2-yl)carbonyl]-4-(2-methylphenyl)-piperazine] |
|  | inhibition at 1 µM: 31% | Cc1ccccc1N1CCN(S(=O)(=O)CC23CCC(CC24CO4)C3(C)C)CC1 (single isomer, unassigned) [Example 54, 1-((7,7-Dimethyl-2-spiro-epoxy-bicyclo(2.2.1)heptan-1-yl)methanesulfonyl)-4-(2-methylphenyl)piperazine] |
| 1100 |  | Cc1ccccc1N1CCN(S(=O)(=O)C[C@]23CC[C@H](CC2=CCCl)C3(C)C)CC1 [Example 49, 1-((7,7-dimethyl-2-(2-chloro)ethylidinebicyclo-(2.2.1)heptan-1-yl)methanesulfonyl)-4-(2-methyl-phenyl)piperazine] |
|  | inhibition at 0.1 µM: 37% | COC(=O)C1CC(=O)N(CC(C)C2(O)CC3CCC2(CS(=O)(=O)N2CCN(c4ccccc4C)CC2)C3(C)C)C1 (stereo not drawn) [Example 62, 1-((7,7-dimethyl-2-exo-hydroxy-2-endo-2-(1-(3-methoxycarbonyl)-2-pyrrolidinon-1-yl)propylbicyclo-(2.2.1)heptan-1-yl)methanesulfonyl)-4-(2-methylphenyl)piperazine] |
| 25 |  | COC(=O)CCN1CCCC(C(=O)NCC(C)C2(O)CC3CCC2(CS(=O)(=O)N2CCN(c4ccccc4C)CC2)C3(C)C)C1 (stereo not drawn) [Example 84] |
| 7.7 |  | Cc1ccccc1N1CCN(S(=O)(=O)CC23CCC(CC2NC(=O)[C@H](CCS(C)(=O)=O)NC(=O)OC(C)(C)C)C3(C)C)CC1 (stereo partly drawn) [Example 71, 1-((7,7-Dimethyl-2-endo-(2S-(tert-butyloxycarbonyl-amino)-4-(methylsulfonyl)-butyramido)-bicyclo(2.2.1)-heptan-1-yl)methanesulfonyl)-4-(2-methylphenyl)-piperazine] |
|  | inhibition at 0.1 µM: 91% | Cc1ccccc1N1CCN(S(=O)(=O)CC23CCC(CC2N)C3(C)C)CC1 (stereo not drawn) [Example 70, 1-((7,7-Dimethyl-2-endo-amino-bicyclo(2.2.1)heptan-1-yl)methanesulfonyl)-4-(2-methylphenyl)-piperazine] |
|  | inhibition at […] (read-out: % inhibition at 110 nM): 66% | Cc1ccccc1N1CCN(S(=O)(=O)CC23CCC(CC2(O)C(C)CNC(=O)C2CCCN(CC(=O)O)C2)C3(C)C)CC1 (stereo not drawn) [Example 87, 1-((7,7-Dimethyl-2-exo-hydroxy-2-endo-2-(1-(3-(1-carboxymethyl)piperidinylcarbonyl)amino)-propylbicyclo(2.2.1)heptan-1-yl)methanesulfonyl)-4-(2-methylphenyl)piperazine] |
| 6.3 |  | Cc1ccccc1N1CCN(S(=O)(=O)CC23CCC(CC2N(C)C(=O)OCc2ccccc2)C3(C)C)CC1 (stereo not drawn) [Example 76, 1-((7,7-Dimethyl-2-endo-methyl(benzyloxy-carbonyl)amino-bicyclo(2.2.1)-heptan-1-yl)methanesulfonyl)4-(2-methylphenyl)piperazine] |
